The values below are quoted from earlier work in US20030212112A1, “Method for administering a phosphodiesterase 4 inhibitor” (SmithKline Beecham Corporation, priority 1999, published 2003).

The structures appear in SMILES notation.

For the data set the following is noted: clinical studies / indications reported in background.

With `CCCCn1c(=O)c2c(ncn2CC(C)=O)n(CCCC)c1=O` [denbufylline], the side effects entry is “may include pyrosis, nausea and emesis”.
For the compound `COc1ccc(C2CNC(=O)C2)cc1OC1CCCC1` (centres unmarked) [rolipram], the side effects entry is “psychotropic activity and produces gastrointestinal effects”.
